According to US10688063B2, “Treating and/or preventing insulin-resistance related weight gain” (University of South Florida, priority 2013, dated 2020):

Key:
[1] = system: SREBP-1c, FAS, PEPCK, G6Pase; assay: Hepatic mRNA and protein levels of lipogenic and gluconeogenic enzymes in HFF mice; type: in vivo, mouse; settings: 10 weeks, ad libitum-fed
Procedure: (§1) Post mortem, liver tissue was removed and examined for immunoreactivity of the indicated signaling factors.
Nuclear preparations were also prepared as described in Sajan et al. 2009. Diabetologia. 52:1197-1207. Western analysis was conducted to evaluate the indicated immunoreactive proteins as in Example 7, except in this Example, rabbit polyclonal anti-GAPDH antiserum, rabbit polyclonal anti-FAS antiserum, rabbit polyclonal anti-PEPCK antiserum, rabbit polyclonal anti-G6Pase antiserum (Santa Cruz Biotechnologies, Santa Cruz, Calif.), and mouse monoclonal anti-SREBP-1 antibodies (Lab Vision Corp., Freemont, Calif.) were used to detect the indicated proteins.

[2] = Glucose tolerance, serum parameters, body weight, food intake, liver and abdominal fat in HFF mice; type: in vivo, mouse
Procedure: Briefly, […] body weight was injected intraperitoneally. After the glucose injection, blood glucose levels were measured at 0, 30, 60, 90 and 120 minutes post-injection. 15 minutes prior to killing, mice were injected with or without insulin (1 U/kg body weight). Serum glucose, triglycerides, and serum cholesterol were measured using methods generally known in the art. Liver triglycerides were also measured using methods generally known in the art. Over the 10 weeks, body weight and food intake were measured weekly. Overall change in bodyweight was also evaluated. Additionally, epididymal plus retroperitoneal fat (also abbreviated PG/PN fat) was measured and evaluated as g/100 g of body weight. After killing, liver tissue samples were sectioned and prepared for Oil red O staining by methods generally known in the art. Samples were Oil Red O stained to observe hepatic fat contents.

Akt2 = biological target: T1, Akt2 (Mus musculus, UniProt Q60823); assay: Akt2 activity in liver and muscle of HFF mice, 10 weeks treatment; type: in vivo; settings: daily s.c. 10 weeks
T1 construct: from tissue; host or cells: mouse liver and muscle
T1 sequence (Q60823 whole entry): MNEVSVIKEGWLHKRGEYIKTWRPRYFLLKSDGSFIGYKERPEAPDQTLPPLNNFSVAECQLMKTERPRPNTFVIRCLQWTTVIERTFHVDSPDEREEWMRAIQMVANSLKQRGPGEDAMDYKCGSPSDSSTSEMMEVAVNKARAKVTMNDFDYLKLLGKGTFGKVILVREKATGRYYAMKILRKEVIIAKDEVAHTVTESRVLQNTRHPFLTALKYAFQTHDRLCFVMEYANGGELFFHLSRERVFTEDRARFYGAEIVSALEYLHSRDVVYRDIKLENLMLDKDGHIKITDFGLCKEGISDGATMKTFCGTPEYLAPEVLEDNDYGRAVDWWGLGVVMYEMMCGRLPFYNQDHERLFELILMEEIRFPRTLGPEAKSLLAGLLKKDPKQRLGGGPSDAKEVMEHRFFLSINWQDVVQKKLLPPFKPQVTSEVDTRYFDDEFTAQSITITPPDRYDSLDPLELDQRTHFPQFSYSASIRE

FoxO1, WD40/ProF = assay: Hepatic Ser256-FoxO1 phosphorylation and aPKC/Akt in WD40/ProF immunoprecipitates in HFF mice; type: in vivo, mouse; settings: 10 weeks
Procedure: as §1
For the results shown in FIG. 10A, liver cell lysates were prepared as previously described. Phosphorylated FoxO1 and un-phosphorylated FoxO1 were analyzed using western blotting as previously described except rabbit anti-phospho-Ser^256-FoxO1 antisera and anti-FoxO1 antiserum was used.
For the results in FIG. 10B, the indicated immunoreactive proteins were analyzed in the immunopercipitates via western blot as previously described except that rabbit anti-aPKC-λ/ι, FoxO1, or WD40/ProF antisera were used.

[3] = system: Ser473-Akt, Ser9-GSK3β, Thr555/560-PKC-λ/ζ, Thr2448-mTOR; assay: Hepatic phosphorylation of Ser473-Akt, Ser9-GSK3β, Thr555/560-PKC-λ/ζ, Thr2448-mTOR in HFF mice (Western); type: in vivo, mouse; settings: 10 weeks
Procedure: as §1
Tissue Preparation: To prepare cell lysates, liver and muscle tissue samples were homogenized in ice-cold buffer containing 0.25 mol/l sucrose, 20 mmol/l Tris/HCl (pH, 7.5), 2 mmol/l EGTA, 2 mmol/l EDTA, 1 mmol/l phenlysulfonlyfluoride (PMSF), 20 μg/ml leupeptin, 10 μg/ml aprotinin, 2 mmol/l Na4P2O7, 2 mmol/l Na3VO4, 2 mmol/l NaF, and 1 μmol/l microcystin, and then supplemented with 1% TritonX-100, 0.6% Nonidet and 150 mmol/l NaCl, and cleared by low-speed centrifugation.
Western Analysis: Western analysis for the indicated signaling factors and GAPDH (endogenous control) were conducted as described in Sajan and Farese. 2012 Diabetologia. 55:1446-1457, Standaert et al. 2004. J. Biol. Chem. 279:24929-24934, Sajan et al. 2012. Metabolism. 61:459-469, Sajan et al. 2009. Diabetologia. 52:1197-1207, Sajan et al. 2009. J. Lipid Res. 50:1133-1145, and Sajan et al. 2013. Diabetologia. 56:2507-2516 using […] anti-phospho-Ser^473-Akt antiserum, rabbit anti-glyceraldehyde-phosphate dehydrogenase (GAPDH) antiserum, rabbit anti-WD40-ProF antiserum, and rabbit anti-aPKC antiserum (Santa Cruz Biotechnologies, Santa Cruz, Calif.); rabbit anti-phospho-Thr560/555 PKC-ζ/λ/ι antiserum (Invitrogen, Carlsbad, Calif.); rabbit anti-p-Ser^256-FoxO1 and anit-FoxO1 antiserum (Abnova, Walnut, Calif.); mouse monoclonal anti-PKC-λ/ι antibodies (Transduction Antibodies, Bedford, Mass.); and rabbit anti-phospho-Ser^9-GSK3β antiserum, rabbit anti-phosphoSer^[…]-mTOR antiserum, and mouse anti-Akt antibodies (Cell Signaling Technologies, Danvers, Mass.). Samples from experimental groups were compared on the same blots and corrected for recovery as needed by measurement of GAPDH immunoreactivity.

aPKC [4] = assay: aPKC activity in liver and muscle of high fat fed (HFF) mice, 10 weeks treatment; type: in vivo, mouse; settings: daily s.c. 10 weeks
aPKC [5] = assay: Effect of ceramide on aPKC immunoprecipitated from liver lysates of LF and HF fed mice; type: biochemical, mouse
Procedure: Standard (C57BI/6/SV129) mice consumed a standard low-fat or high-fat diet for 10 weeks. At 10 weeks mice were treated with or without insulin for 15 min prior to killing. Liver cell lysates were prepared as in Example 5 and aPKC activity assay was performed on the aPKC immunoprecipitate as in Example 5, except here the activity assays were carried out in the presence of the indicated concentrations of ceramide. Additionally, the levels of ceramide and sphingomyelin species in lipid extracts prepared from the liver cell lysates. Ceramide and sphingomyelin species were measured by liquid chromatography tandem mass spectrometry analysis of the lipid extracts of the liver lysates.

aPKC [6] = assay: aPKC activity in brains of heterozygous muscle-specific PKC-λ knockout mice (Western); type: in vivo, mouse; settings: treated for 8 days
Procedure: Standard lab mice (“control” or “con” mice) and heterozygous muscle-specific PKC-λ knockout mice were fed standard chow containing 10% fat. Some mice were treated for 8 days with ICAPP. Some mice were acutely treated with insulin (1 U/kg body weight administered intraperitoneally) 15 minutes prior to killing. Brain tissues were collected and prepared for phospho-protein analysis. Activity/activation of aPKC was assessed by Western blot analyses of phospho-protein immunoreactivity followed by quantitative scanning of the blots.

[7] = toward, not fully to, normal levels

NC(=O)c1ncn(C2CC(COP(=O)(O)O)C(O)C2O)c1N (stereo not drawn) [ICAP]
hepatic mRNA levels of SREBP-1c, FAS, PEPCK, G6Pase versus control/low-fat fed mice [1]: not significantly different
hepatic protein levels of SREBP-1c, FAS, PEPCK, G6Pase versus control/low-fat fed mice [1]: not significantly different
HFF-induced increases in abdominal fat depots ([2]; 10 weeks): improved
food intake ([2]; 10 weeks): without altering
increases in liver triglycerides and fat content ([2]; 10 weeks): largely prevented
increases in serum triglycerides and cholesterol levels ([2]; 10 weeks): largely prevented
weight gain ([2]; 10 weeks): largely prevented
fasting insulin levels ([2]; still modestly elevated): improved
glucose tolerance, basal glucose levels (fasting and fed), acute effects of insulin on serum glucose ([2]; to levels indistinguishable from control chow-fed mice): improved
hepatic Akt2 activity (Akt2; ICAP 1 mg/kg, ACPD 10 mg/kg): increased further
muscle Akt2 activity (Akt2; [7]): increased
WD40/ProF-associated Akt activity (FoxO1, WD40/ProF; HFF mice liver): increased
aPKC binding to WD40/ProF (FoxO1, WD40/ProF; HFF mice liver): diminished
basal/resting and insulin-stimulated hepatic FoxO1 phosphorylation (FoxO1, WD40/ProF; HFF mice): fully or partially restored
hepatic phosphorylation of Ser9-GSK3β and Ser2448-mTOR [3]: not altered
insulin-stimulated Akt2 activity in liver (Ser473-Akt phosphorylation) [3]: increased
resting Akt2 activity in liver (Ser473-Akt phosphorylation) [3]: did not alter
basal/resting and exogenous insulin-stimulated hepatic aPKC activities (Thr555/560 phosphorylation) ([3]; to levels of control low fat fed mice): reduced
resting and insulin-stimulated hepatic aPKC activity (aPKC [4]; ICAP 1 mg/kg, ACPD 10 mg/kg, to control levels): diminished
muscle aPKC activity (aPKC [4]; [7]): increased

ceramide
activity of aPKC immunoprecipitated from liver lysates (aPKC [5]; HFF mice): only a weak effect
activity of aPKC immunoprecipitated from liver lysates (aPKC [5]; HFF mice treated acutely with insulin): diminished activity
activity of aPKC immunoprecipitated from liver lysates (aPKC [5]; LFF/control mice): strongly activated

NC(=O)c1ncn([C@@H]2C[C@H](COP(=O)(O)O)[C@@H](O)[C@H]2O)c1N [ICAPP]
aPKC activity in the brain (aPKC [6]): decreased
